Results from patent US20250101448A1, “Protein, Gene and Their Vectors and Applications that Control Symbiotic Nitrogen Fixation Efficiency of Soybeans” (priority 2022, published 2025).
Values belong to the molecule of their own block, whether it stands above or below them.

Tests used:
GmNAP1 protein = assay: isothermal titration calorimetry, binding of GmNAP1 to AMP/ADP/ATP/cAMP; parameters: species or system soybean; settings: ITC, GmNAP1 expressed in Escherichia coli and purified
Source text: (§1) Utilize the prokaryotic expression system of Escherichia coli to express and purify GmNAS1 and GmNAP1 proteins; and then utilize isothermal titration calorimetry to detect the binding ability of GmNAS1/GmNAP1 to AMP, ADP, ATP and cAMP.

[1] = test system: GmNAS1 protein lacking any one CBS functional domain; assay: isothermal titration calorimetry, GmNAS1 protein lacking a CBS functional domain, binding to AMP; parameters: species or system soybean; settings: ITC
Source text: as §1

GmNFYC10a-GFP = GmNFYC10a-GFP fluorescence localization in sections of mature root nodules; type: cell-based, soybean; settings: nodule sections treated for 2 hours, 25 days after inoculation with Rhizobia
Source text: This application also uses co-immunoprecipitation coupled mass spectrometry analysis technology to search for candidate proteins that bind to GmNAP1. In the mass spectrometry results, a transcription factor GmNFYC10a is discovered. […] In order to verify this speculation, we first obtains GmNFYC10a-GFP transgenic hairy roots, and carrying out vibration sectioning of mature root nodules 25 days after inoculation with Rhizobia. […] (FIG. 14).

[2] = test system: interaction between GmNAS1 and GmNFYC10a; assay: pull-down of GmNAS1 and GmNFYC10a interaction; type: binding, soybean
GmNAS1 protein = assay: isothermal titration calorimetry, binding of GmNAS1 to AMP/ADP/ATP/cAMP; parameters: species or system soybean; settings: ITC
Source text: as §1

soybean root nodules = assay: nodule nitrogenase activity after sucrose treatment of plants inoculated with USDA110; type: in vivo; settings: wild-type W82, 3% (w/v) sucrose solution for three days
Protocol: Design editing site identification primers based on the target sequences of sgRNA on GmNAS1 and GmNAP1, amplify the corresponding fragments and send them for sequencing. The sequencing results are analyzed and four function loss mutants of cr-nas1, cr-nap1, cr-nas1nap1-1 and cr-nas1nap1-2 are obtained. The nodule number, nodule weight and nodule nitrogenase activity on the 25th day after the mutant plants are inoculated with Rhizobia USDA110 are measured.
By utilizing gene editing technology, we obtain the functional knockout mutant cr-nas1 of GmNAS1, the functional knockout mutant cr-nap1 of GmNAP1, and the double knockout mutants cr-nas1nap1-1 and cr-nas1nap1-2 of GmNAS1 and GmNAP1. The root nodules of these four soybean mutants are phenotypically determined 25 days after inoculation with USDA110.

[3] = test system: soybean root nodule cells; assay: GmNFYC10a nuclear protein level and glycolysis gene expression in root nodules before and after sucrose treatment; type: in vivo; settings: after sucrose treatment

Compound: Nc1ncnc2c1ncn2[C@@H]1O[C@H](COP(=O)(O)O)[C@@H](O)[C@H]1O [AMP]
- binding to GmNAP1 (GmNAP1 protein): does not bind
- binding to GmNAS1 protein lacking any one CBS functional domain [1]: not capable of binding
- GmNFYC10a-GFP fluorescence in the nucleus (GmNFYC10a-GFP): increased significantly
- effect on interaction between GmNAS1 and GmNFYC10a [2]: significantly inhibit

Compound: Nc1ncnc2c1ncn2[C@@H]1O[C@H](COP(=O)(O)OP(=O)(O)O)[C@@H](O)[C@H]1O [ADP]
- binding to GmNAP1 (GmNAP1 protein): does not bind

Compound: CC[C@H]1/C=C/C=C/C[C@@H](C)[C@H](O)[C@@](C)(O)C(=O)[C@@H](C)[C@H](O)[C@@H](C)C(=O)[C@@H](C)[C@H](O)[C@@H](C)/C=C/C(=O)O[C@@H]2[C@H](C)[C@H](CC1)O[C@]1(CC[C@H](C)[C@H](C[C@@H](C)O)O1)[C@H]2C [oligomycin]
- GmNFYC10a-GFP fluorescence in the nucleus (GmNFYC10a-GFP): increased significantly

- binding to GmNAP1 (GmNAP1 protein): does not bind
- binding to GmNAS1 (GmNAS1 protein): does not bind
Compound: Nc1ncnc2c1ncn2[C@@H]1O[C@H](COP(=O)(O)OP(=O)(O)OP(=O)(O)O)[C@@H](O)[C@H]1O [ATP]

Compound: OC[C@H]1O[C@@](CO)(O[C@H]2O[C@H](CO)[C@@H](O)[C@H](O)[C@H]2O)[C@@H](O)[C@@H]1O [sucrose]
- nitrogenase activity of wild-type plants vs plants without sucrose (soybean root nodules): significantly higher
- protein content of GmNFYC10a in the nucleus ([3]; nuclei of soybean root nodule cells): decreases significantly
- expression of glycolysis-related genes ([3]; root nodules): significantly down-regulated
